Measured values: paper PMC5577515, “Peptide‐Directed Binding for the Discovery of Modulators of α‐Helix‐Mediated Protein–Protein Interactions: Proof‐of‐Concept Studies with the Apoptosis Regulator Mcl‐1” (Angewandte Chemie (International Ed. in English), 2017)
Read-outs that look alike come from different tables or passages of the source. Values belong to the compound of their own block, whether it stands above or below them. Peptide text beside a SMILES is read from it. * marks the point of attachment. X3 = O=C(Cn1cc(-c2ccc([N+](=O)[O-])cc2)nn1)*; X4 = O=C(Cn1cc(-c2c(O)ccc3ccccc23)nn1)*

Legend:
Mcl-1 = biological target: T1, Mcl-1 (UniProt P97287+Q07820); experiment: Competitive fluorescence anisotropy (FA) assay, FITC-NoxaB displacement from Mcl-1; type: binding
T1 construct: amino acid residues 152-189 of mouse Mcl-1 fused with amino acid residues 209-327 of; 8 x His (N); TEV site (N); made in house; host or cells: E. coli BL21(DE3)pLysS
Protocol: Fmoc, 9-fluorenylmethylcarbony. IC50 determined by non -linear regression of at least three experiments.
4. Fluorescence Anisotropy Binding Assay
Fluorescence anisotropy was carried out on a BMG Labtech clariostar microplate reader with a fluorescence anisotropy optic measuring at 482/530 nm. Low -binding, Corning 96 -well black plates were used and all reagents used in the assay were biological grade and purchased from Sigma Aldrich and Novabioche m. All solutions were made using MilliQ water .
Anisotropy values were automatically calculated using the following formula […]
Where r = anisotropy, l a = parallel emission light, lb = perpendicular emission light and I = total […]
KD was determined using GraphPad Prism Version 6.0 software, using the One Site – Total binding […]
Where Bmax is the maximum specific binding, KD is the equilibrium binding constant, and NS is the slope of nonspecific binding. […]
IC50 was determined using GraphPad Prism Version 6.0 software, using a four-parameter logistic model, according to precedent from Ottmann and co-workers.[5] Errors are the transformed greater extreme of the standard error. […]
For binding each well contained 10 µL of Mcl -1 protein in 10-fold dilutions (0.37 pM to 3.7 µM) […]
protein were dissolved in PBS: 0.05% Tween -20 buffer at pH 7.4. Reagents were incubated for 30 min at room temperature prior to reading. Bubbles were removed and 8 data points were generated.
Figure S 1: Fluorescence Anisotropy direct titration.
To confirm reproducibility of
(µ) and standard deviations (σ) were inputted into the following equation:
Inhibition screens were carried out using 10 nM Mcl -1, 5 nM fluorescently-tagged peptide and 100 µM of inhibitor. Compounds were dissolved in DMSO. […]
control (DMSO) were used to define the mini mum and maximum values and ensure the assay was […]
(1 picture or pasted object on this page, not shown here) […]
Bubbles were removed and 8 data points were generated. […]

MiaPaCa-2 cells = experiment: MTS cytotoxicity assay, MiaPaCa-2; type: cell-based; conditions: 37 °C, triplicate, at least three experiments, errors = transformed greater extreme of standard error, read-out: MiaPaCa-2 cell growth inhibition IC50
Protocol: (§1) CUSTOM_[…] ("<1>=[N+]",("charge", 0, 2)) […]
(§2) CUSTOM_[…] ("<1>=[N]=[N]",("bond",1,(2,3))) […]
(§3) CUSTOM_[…] ("<1>([C]=[C])=[N][N]",("bond",1,(3,5))) […]
(§4) The MiaPaCa-2 cell line, BxPC-3 cell line and AsPC-1 cell line were purchased from the European Collection of Cell Cultures (ECACC, Porton Down, UK). MiaPaCa-2 cells were cultured in DMEM media with 2 mM L-glutamine, 100 U/mL penicillin, 100 µg/mL streptomycin and 10% FCS.
(§5) BxPC-3 cells and AsPC-1 cells were cultured in RPMI-1640 media containing 2 mM L-glutamine, 100 U/mL penicillin, 100 µg/mL streptomycin and 10% FCS. Cells were sub-cultured twice weekly and maintained at 37 °C and 5% CO2.
(§6) The anti-proliferative activity of the compounds studied was assessed by MTS assay (Promega) following the manufacturer’s instructions. Cells were seeded at 5 x 103 / 100 μL in a 96-well plate and left untreated or treated with DMSO (vehicle control), or compounds 1-4 (100 μM – […], in well concentration) in triplicate for 72 h at 37 °C with 5% CO2. Following this, MTS assay reagent was added to each well and the plates incubated for 4 h at 37 °C with 5% CO2. The absorbance was measured at 492 nm using the BMG Labtech POLARstarOPTIMA microplate reader. […]

BxPC-3 cells = experiment: MTS cytotoxicity assay, BxPC-3; type: cell-based; conditions: 37 °C, triplicate, at least three experiments, errors = transformed greater extreme of standard error, read-out: BxPC-3 cell growth inhibition IC50
Protocol: as §1, §2, §3, §4, §5, §6

AsPC-1 cells = experiment: MTS cytotoxicity assay, AsPC-1; type: cell-based; conditions: 37 °C, triplicate, at least three experiments, errors = transformed greater extreme of standard error, read-out: AsPC-1 cell growth inhibition IC50
Protocol: as §1, §2, §3, §4, §5, §6

[1] = Table 1, inhibition of binding of 5 nM FITC-NoxaB to 10 nM Mcl-1, PBS, 0.05% Tween-20, pH 7.4, non-linear regression of at least three experiments, errors = transformed greater extreme of standard error, [b] <100 means <100 μM and >10 μM, accurate value not determined, SEM, read-out: FA IC50
[2] = Table S2, binding inhibition of FITC-NoxaB to Mcl-1, small molecules not tested against cell lines, at least three experiments, errors = transformed greater extreme of standard error, read-out: FA IC50
[3] = Table S2, binding inhibition of FITC-NoxaB to Mcl-1, small molecules not tested against cell lines, at least three experiments, errors = transformed greater extreme of standard error, SEM, read-out: FA IC50

T1 sequence (P97287 152-189 limits assumed): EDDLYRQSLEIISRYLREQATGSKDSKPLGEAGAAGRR
T1 sequence (Q07820 209-327 limits assumed): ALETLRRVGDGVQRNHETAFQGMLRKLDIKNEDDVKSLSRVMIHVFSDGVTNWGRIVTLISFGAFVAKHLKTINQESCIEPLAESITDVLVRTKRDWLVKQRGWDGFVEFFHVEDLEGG

Compound: KVNLRQKLLN [Compound 10]
- IC50 (Mcl-1; [1]): 1.2 µM

Compound: CC(C)C[C@H](NC(=O)[C@H](CC(C)C)NC(=O)[C@H](CCCCN)NC(=O)[C@H](CCC(N)=O)NC(=O)[C@H](CCCNC(=N)N)NC(=O)[C@H](CC(C)C)NC(=O)[C@H](CC(N)=O)NC(=O)[C@@H](NC(=O)[C@H](CCCCN)NC(=O)Cn1cc(-c2c(O)ccc3ccccc23)nn1)C(C)C)C(=O)N[C@@H](CC(N)=O)C(N)=O [Compound 13] (X4-KVNLRQKLLN-NH2)
- IC50 (Mcl-1; SEM, read-out: FA IC50): 8.2 ± 1.9 µM

Compound: Fc1ccccc1Cn1cc(C2=CCCCC2)nn1 [Compound 19]
- IC50 (Mcl-1; Table 2, inhibition of binding of 5 nM FITC-NoxaB to 10 nM Mcl-1, PBS, 0.05% Tween-20, pH 7.4, non-linear regression of at least three experiments, errors = transformed greater extreme of standard error, SEM, read-out: FA IC50): 0.217 ± 0.058 µM
- IC50 (MiaPaCa-2 cells; 72 h): > 100 µM
- IC50 (BxPC-3 cells; 72 h, SEM): 21.6 ± 8.83 µM
- IC50 (AsPC-1 cells; 72 h): > 100 µM

Compound: KVNLRQKLLN [Compound 15]
- IC50 (Mcl-1; Table 1, inhibition of binding of 5 nM FITC-NoxaB to 10 nM Mcl-1, PBS, 0.05% Tween-20, pH 7.4, non-linear regression of at least three experiments, errors = transformed greater extreme of standard error, [b] <100 means <100 μM and >10 μM, accurate value not determined, read-out: FA IC50): < 100 µM

Compound: CC(C)C[C@H](NC(=O)[C@H](CC(C)C)NC(=O)[C@H](CCCCN)NC(=O)[C@H](CCC(N)=O)NC(=O)[C@H](CCCNC(=N)N)NC(=O)[C@H](CC(C)C)NC(=O)[C@H](CC(N)=O)NC(=O)[C@@H](NC(=O)[C@H](CCCCN)NC(=O)Cn1cc(-c2ccc([N+](=O)[O-])cc2)nn1)C(C)C)C(=O)N[C@@H](CC(N)=O)C(N)=O [Compound 11] (X3-KVNLRQKLLN-NH2)
- IC50 (Mcl-1; SEM, read-out: FA IC50): 3.5 ± 1.5 µM

Compound: Clc1ccc(-c2cn(Cc3ccccc3)nn2)c(Cl)c1 [Compound 25, 1-benzyl-4-(2,4-dichlorophenyl)-1H-1,2,3-triazole]
- IC50 (Mcl-1; SEM, read-out: FA IC50): 5.5 ± 3.92 µM
- IC50 (MiaPaCa-2 cells; Homo sapiens, MIA PaCa-2, 72 h): > 100 µM
- IC50 (BxPC-3 cells; Homo sapiens, BXPC-3, 72 h): > 100 µM
- IC50 (AsPC-1 cells; Homo sapiens, ASPC1, 72 h): > 100 µM

Compound: KVNLRQKLLN [Compound 12]
- IC50 (Mcl-1; [1]): 4.3 ± 0.9 µM

Compound: CC[C@H](C)[C@H](NC(=O)[C@H](CCCNC(=N)N)NC(=O)[C@H](CCCNC(=N)N)NC(=O)[C@H](CC(C)C)NC(=O)[C@H](CCC(N)=O)NC(=O)[C@H](C)NC(=O)[C@H](C)NC(C)=O)C(=O)NCC(=O)N[C@@H](CC(=O)O)C(=O)N[C@@H](Cc1cn(Cc2ccccc2)nn1)C(N)=O [Compound 3]
- IC50 (Mcl-1; SEM, read-out: FA IC50): 0.7 ± 0.8 µM

Compound: extended NoxaB peptide: the two NoxaB peptide fragments clicked together by CuAAC (AAQLRRIGDXKVNLRQKLLN; N-terminal acetyl)
- IC50 (Mcl-1; 5 nM FITC-NoxaB, 10 nM Mcl-1, read-out: IC50 (competitive FA assay, Mcl-1)): 7.23 ± 0.88 µM

Second part, the compound after the results:

- IC50 (Mcl-1; [2]): > 100 µM
Compound: COC(=O)[C@H](Cc1cn(Cc2ccc(Br)cc2)nn1)NC(=O)OCC1c2ccccc2-c2ccccc21 [Compound S17]

- IC50 (Mcl-1; [3]): 0.497 ± 0.367 µM
Compound: CCc1ccc(-c2cn(CC(=O)O)nn2)cc1 [Compound S10]

- IC50 (Mcl-1; [3]): 3.31 ± 0.488 µM
Compound: CCC(C)c1cn(Cc2ccccc2)nn1 (centres unmarked) [Compound S15]

- IC50 (Mcl-1; [3]): 1.32 ± 1.1 µM
Compound: CCOc1ccc(-c2cn(CC(=O)O)nn2)cc1 [Compound S13]

- IC50 (Mcl-1; [2]): > 100 µM
Compound: CCCCCCCc1cn(Cc2ccccc2F)nn1 [Compound S19]
